{
  "source": "patent US20180236011A1",
  "about": "“METHODS TO ENHANCE TUMOR-TARGETING BY BACTERIA” (priority 2017, published 2018)",
  "key": {"melanoma PDOX [1]": {"tested_on": "melanoma PDOX", "experiment": "Histological analysis (H&E) of treated PDOX tumors", "assay_type": "in vivo, Athymic nu/nu nude mice", "conditions": "each drug combined with S. typhimurium A1-R; much more extensive than S. typhimurium A1-R", "method": "(§1) PDOX mouse models were randomized into four groups of 10 mice each: untreated control (n=10); treated with S. typhimurium A1-R (5×10^7 CFU/100 μl, i.v., qw×2, n=10); treated with TEM (25 mg/kg, p.o., qd×14) combined with S. typhimurium A1-R (5×10^7 CFU/[…]., qw×2, n=10); treated with VEM (30 mg/kg, p.o., qd×14) combined with S. typhimurium A1-R (5×10^7CFU/100 μl, i.v., qw×2, n=10). Tumor length and width were measured twice a week. Tumor volume was calculated with the following formula: Tumor volume (mm3)=length (mm)×width (mm)×width (mm)×½. Data are presented as mean±SD. The tumor volume ratio is defined at the tumor volume at any given time point relative to the initial tumor volume.\nFresh tumor samples were fixed in 10% formalin and embedded in paraffin before sectioning and staining. Tissue sections (5 μm) were deparaffinized in xylene and rehydrated in an ethanol series. Hematoxylin and eosin (H&E) staining was performed according to standard protocols. Histological examination was performed with a BHS System Microscope (Olympus Corporation, Tokyo, Japan). Images were acquired with INFINITY ANALYZE software (Lumenera Corporation, Ottawa, Canada)."}, "melanoma PDOX [2]": {"tested_on": "melanoma PDOX", "experiment": "Confocal microscopy of S. typhimurium A1-R-GFP tumor targeting (fluorescent area)", "assay_type": "in vivo, Athymic nu/nu nude mice", "conditions": "drug combined with S. typhimurium A1-R", "method": "GFP-expressing S. typhimurium A1-R bacteria (AntiCancer Inc.,) were grown overnight on LB medium (Fisher Sci., Hanover Park, Ill., USA) and then diluted 1:10 in LB medium. Bacteria were harvested at late-log phase, washed with PBS, and then diluted in PBS. S. typhimurium A1-R was injected intravenously. A total of 5×10^7 CFU S. typhimurium A1-R in 100 μl PBS was administered to each mouse.\nas §1\nThe FV1000 confocal microscope (Olympus, Tokyo, Japan) was used for high-resolution imaging. Fluorescence images were obtained using the 20×/0.50 UPLAN FLN and 40×/1.3 oil Olympus UPLAN FLN objectives. The tumor fluorescent area was analyzed with UVP software (UVP, Upland, Calif.)."}},
  "data": [
    {"smiles": "Cn1nnc2c(C(N)=O)ncn2c1=O", "note": "[TEM, temozolamide]", "values": [
      {"measurement": "tumor necrosis (histology)", "setting": "melanoma PDOX [1]", "result": "extensive necrosis"},
      {"measurement": "S. typhimurium A1-R tumor targeting / accumulation", "setting": "melanoma PDOX [2]; elevated accumulation leading to extensive tumor necrosis", "result": "promoted S. typhimurium A1-R tumor targeting"},
      {"measurement": "S. typhimurium A1-R-GFP fluorescent area compared to S. typhimurium A1-R alone", "setting": "melanoma PDOX [2]; p<0.01", "result": "significantly increase"}
    ]}
  ]
}
